Biological target: 1,3-beta-glucan synthase (Aspergillus fumigatus, UniProt P87204, S678P)
Assay: Inhibition of 1,3-beta-D-glucan synthase EMFR-S678P mutant from Aspergillus fumigatus assessed as incorporation of [3H]glucose

1,3-beta-glucan synthase, sequence (P87204 entry or part of it S678P): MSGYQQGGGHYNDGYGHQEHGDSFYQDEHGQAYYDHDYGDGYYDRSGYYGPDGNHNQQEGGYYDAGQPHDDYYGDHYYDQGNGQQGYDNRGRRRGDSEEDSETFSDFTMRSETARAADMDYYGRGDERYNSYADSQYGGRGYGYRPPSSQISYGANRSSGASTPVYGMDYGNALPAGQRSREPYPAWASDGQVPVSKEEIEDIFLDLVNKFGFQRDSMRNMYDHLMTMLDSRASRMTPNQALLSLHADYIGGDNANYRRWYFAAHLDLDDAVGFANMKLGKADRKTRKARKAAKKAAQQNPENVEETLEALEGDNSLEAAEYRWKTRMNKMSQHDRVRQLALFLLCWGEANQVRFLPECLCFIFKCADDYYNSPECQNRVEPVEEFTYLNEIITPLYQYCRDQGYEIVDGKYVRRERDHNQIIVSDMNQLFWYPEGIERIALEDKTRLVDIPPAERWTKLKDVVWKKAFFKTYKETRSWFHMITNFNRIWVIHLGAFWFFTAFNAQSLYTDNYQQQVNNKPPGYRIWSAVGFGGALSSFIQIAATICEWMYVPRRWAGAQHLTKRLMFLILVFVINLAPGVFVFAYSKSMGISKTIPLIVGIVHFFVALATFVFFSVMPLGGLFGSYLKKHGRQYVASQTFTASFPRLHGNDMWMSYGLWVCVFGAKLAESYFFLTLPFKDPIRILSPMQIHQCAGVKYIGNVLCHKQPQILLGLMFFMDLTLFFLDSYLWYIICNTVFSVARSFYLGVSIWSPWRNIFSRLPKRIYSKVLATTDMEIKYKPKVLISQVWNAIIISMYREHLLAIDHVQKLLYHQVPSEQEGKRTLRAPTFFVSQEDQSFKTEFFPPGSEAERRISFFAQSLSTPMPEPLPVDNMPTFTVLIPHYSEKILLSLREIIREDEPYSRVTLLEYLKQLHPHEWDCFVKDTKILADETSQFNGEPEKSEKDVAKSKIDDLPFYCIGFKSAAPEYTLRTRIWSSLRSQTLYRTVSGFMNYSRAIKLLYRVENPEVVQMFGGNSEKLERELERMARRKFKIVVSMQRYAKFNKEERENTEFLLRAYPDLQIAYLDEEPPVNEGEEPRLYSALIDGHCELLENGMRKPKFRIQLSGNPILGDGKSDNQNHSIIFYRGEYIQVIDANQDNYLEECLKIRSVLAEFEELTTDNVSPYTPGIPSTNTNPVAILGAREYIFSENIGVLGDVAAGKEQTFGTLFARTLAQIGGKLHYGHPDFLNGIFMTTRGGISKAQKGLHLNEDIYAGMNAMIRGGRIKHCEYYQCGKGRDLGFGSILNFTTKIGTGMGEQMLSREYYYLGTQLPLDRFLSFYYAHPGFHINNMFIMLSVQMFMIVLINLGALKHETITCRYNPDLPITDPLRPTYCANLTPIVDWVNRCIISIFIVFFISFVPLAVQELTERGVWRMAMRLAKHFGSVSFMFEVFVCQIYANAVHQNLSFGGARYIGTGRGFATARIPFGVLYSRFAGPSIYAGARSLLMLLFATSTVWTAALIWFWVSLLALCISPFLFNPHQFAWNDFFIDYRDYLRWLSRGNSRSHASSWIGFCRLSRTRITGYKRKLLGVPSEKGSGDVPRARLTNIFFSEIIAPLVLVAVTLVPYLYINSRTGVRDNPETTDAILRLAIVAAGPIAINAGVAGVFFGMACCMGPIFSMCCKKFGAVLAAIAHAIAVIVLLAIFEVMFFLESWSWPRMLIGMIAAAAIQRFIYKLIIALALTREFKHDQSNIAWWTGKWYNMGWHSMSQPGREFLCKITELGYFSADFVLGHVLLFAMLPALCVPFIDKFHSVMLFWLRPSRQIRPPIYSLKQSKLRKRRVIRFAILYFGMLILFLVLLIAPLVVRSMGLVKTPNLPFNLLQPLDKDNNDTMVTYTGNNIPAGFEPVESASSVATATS

CCC(C)CC(C)CCCCCCCCC(=O)N[C@H]1C[C@@H](O)[C@@H](NCCN)NC(=O)[C@@H]2[C@@H](O)CCN2C(=O)[C@H]([C@H](O)CCN)NC(=O)[C@H]([C@H](O)[C@@H](O)c2ccc(O)cc2)NC(=O)[C@@H]2C[C@@H](O)CN2C(=O)[C@H]([C@@H](C)O)NC1=O (stereo partly specified) [CHEBI:474180] was tested, and the IC50 was 110 nM.

— BindingDB's records for doi:10.1128/aac.00917-07 (Umdnj-New Jersey Medical School, 2007)
